These results are taken from patent US20230381141A1, “CONJOINT THERAPIES FOR TREATING VIRAL INFECTIONS” (priority 2022, published 2023).

Several values for one entry are separate records, joined by “and”; a condition that tells them apart may be missing. Equal values may be shown once. Entries after “also recorded” stand apart in the source; their conditions may differ. Read-outs that look alike come from different tables or passages of the source.

The conditions of data set [1]: cited from earlier work.
In the next data set the target is PL^pro (Severe acute respiratory syndrome coronavirus 2, UniProt P0DTD1). As to conditions: read-out: reported PL^pro IC50; cited from earlier work.
Data set [2] deals with IFN-β induction in HEK293T cells expressing SARS-CoV-2 PL^pro. It counts as cell-based.
Data set [3] in a line: Brain drug level in mice by LC-MS/MS. As to conditions: for concentration at 2 h: male, C57BL/6, mouse, brain, po, 30 mg/kg; for brain permeability: pilot PK studies in mice.
Text: (§3) Two hours after dosing, mice were anesthetized and blood was collected following transcardial puncture for the isolation of plasma. Mice were then perfused transcardially with saline and brain tissue removed.
Data set [4] relates to IFN induction (IRF3 reporter). Description: IFN induction assay, IRF3 binding site Firefly luciferase reporter with poly(I:C). It counts as cell-based.
Data set [5] can be described thus: Plasma drug level in mice by LC-MS/MS. As to conditions: C57BL/6, mouse.
Experimental: Following compound administration, mice were euthanized at 2 hours, followed by perfusion.
as §3
Another data set deals with SARS-CoV-2. The note with it: cited from earlier work; for EC50: read-out: antiviral EC50; for EC90: read-out: antiviral EC90.
A further data set has as its system Vero E6 normal cells. The note with it: cited from earlier work.
The target in another data set is SARS-CoV-2 PL^pro (Severe acute respiratory syndrome coronavirus 2, UniProt P0DTD1). The experiment in a line: biochemical. The note with it: for inhibition at 50 µM: read-out: inhibition of PL^pro activity in library screening.
Data set [6] has as its target PL^pro ISG15 cleavage activity (Severe acute respiratory syndrome coronavirus 2, UniProt P0DTD1). Description: PL^pro ISG15 substrate (deISGylase) assay. It counts as biochemical, SARS-CoV-2. On the procedure:
(§1) Briefly, in each assay, the enzyme was loaded into each well in the appropriate buffer, next the compounds were added into the well and incubated for 10-60 min at 37° C. The reaction was initiated by addition of substrate to each well and the fluorescent signal was read for 60 min at the appropriate excitation/emission.
(§2) For the PL^pro and PL^pro deubiquitinase assays, DTT was added to the assay buffer to achieve 1 mM DTT before the assay. A 10 mM stock of compounds was prepared in DMSO, this stock was diluted in assay buffer to achieve a 10× of the desire concentration in the well. Next, the PL^pro and deubiquitinase substrates were diluted to 42 μM and 0.5 μM respectively in the assay buffer. Then, PL^pro enzyme was diluted to 2.5 ng/μL and 6 ng/μL for the PL^pro and deubiquitinase assays respectively in the assay buffer. […] The reaction was started by adding 12.5 μL of the substrate to each well, the reaction was monitored for 1 h at excitation at 360 nm; emission at 460 nm. For the ISG15 substrate, PL^pro enzyme at 0.1 nM was incubated with compounds for lh and the reaction was initiated by adding ISG15-RH110 substrate at 500 nM, the reaction was monitored for 1-hour excitation at 485 nm; emission at 535 nm. […] Following the incubation, 2 μL of substrate at 25 μM was added into the wells and the fluorescent signal (ex/em 380/455 nm) was recorded for 1 h at 37° C.

The target in data set [7] is spike protein-ACE2 complex (UniProt P0DTC2+Q9BYF1). The note with it: separate study; cited from earlier work.
Chain of spike protein-ACE2 complex (Q9BYF1 18-805, one chain of several): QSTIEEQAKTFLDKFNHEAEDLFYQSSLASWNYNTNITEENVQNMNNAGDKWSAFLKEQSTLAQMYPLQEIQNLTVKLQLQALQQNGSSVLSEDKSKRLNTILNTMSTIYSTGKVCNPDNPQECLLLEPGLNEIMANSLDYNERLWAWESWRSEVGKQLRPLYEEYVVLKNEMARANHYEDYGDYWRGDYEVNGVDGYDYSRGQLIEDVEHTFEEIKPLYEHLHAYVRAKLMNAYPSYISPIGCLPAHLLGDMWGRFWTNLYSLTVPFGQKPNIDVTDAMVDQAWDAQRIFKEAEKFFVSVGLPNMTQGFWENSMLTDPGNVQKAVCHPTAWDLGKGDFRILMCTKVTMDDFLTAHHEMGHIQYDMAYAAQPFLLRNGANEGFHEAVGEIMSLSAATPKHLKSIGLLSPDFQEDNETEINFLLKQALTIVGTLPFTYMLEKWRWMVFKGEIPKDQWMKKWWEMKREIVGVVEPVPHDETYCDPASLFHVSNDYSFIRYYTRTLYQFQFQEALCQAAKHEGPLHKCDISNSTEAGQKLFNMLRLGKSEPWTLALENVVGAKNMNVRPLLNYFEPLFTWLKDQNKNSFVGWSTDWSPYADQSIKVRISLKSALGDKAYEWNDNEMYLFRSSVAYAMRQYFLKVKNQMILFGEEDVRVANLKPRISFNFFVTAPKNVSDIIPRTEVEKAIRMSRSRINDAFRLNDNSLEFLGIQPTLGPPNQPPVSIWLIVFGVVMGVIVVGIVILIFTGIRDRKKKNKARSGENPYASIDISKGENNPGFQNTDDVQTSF
Data set [8] deals with PL^pro deubiquitinase activity (Severe acute respiratory syndrome coronavirus 2, UniProt P0DTD1). Description: PL^pro deubiquitinase substrate assay. It counts as biochemical, SARS-CoV-2. How it is done: as §1, §2
For another data set, the target named is SARS-CoV-2 M^pro (Severe acute respiratory syndrome coronavirus 2, UniProt P0DTD1). Description: M^pro activity assay, fluorogenic substrate. It counts as biochemical. The note with it: alone, FIG. 7B.
Where [9] appears, read: read-out: Cmax in human plasma after oral dosing, oral dosing.
[10] abbreviates: 1 μM, poly I:C, Wuhan strain PL^pro.
[11] abbreviates: po, 30 mg/kg, plasma levels in combination DDL-701+DDL-750, mice, oral gavage 30 mg/kg, combination, FIG. 5.
Setting [12] is: po, 30 mg/kg, plasma levels, mice, oral gavage 30 mg/kg, given alone, FIG. 5.
Setting [13] is: male, oral, plasma levels in combination, mice, DDL-701 + DDL-750 both 30 mg/Kg oral, FIG. 9.
Where [14] appears, read: male, po, 30 mg/kg, plasma levels, mice, oral 30 mg/Kg, given alone, FIG. 9.
Setting [15] is: SARS-CoV-2 infected VeroE6 cells.
Setting [16] is: in combination with DDL-750 or DDL-750/DDL-751, FIG. 2.
Setting [17] is: Vero E6 cells infected with SARS-CoV-2.
Where [18] appears, read: PL^pro peptide substrate, dose response, read-out: IC50 PL^pro inhibition.

Usually Cmax stands for the maximum level reached in the sampled fluid or tissue. As a reminder, the IC50 is the midpoint of a concentration-inhibition curve. For the compound `CCCCc1nc(Cl)c(CO)n1Cc1ccc(-c2ccccc2-c2nn[nH]n2)cc1` [losartan], in data set [1] (setting [9]), the Cmax was approximately 0.5 µM. In addition, the IC50 on PL^pro was approximately 13 µM.
As a reminder, the EC50 is the concentration needed to bring the measured effect to its halfway point. The term EC90 denotes the point of the concentration-response curve where the effect stands at 90%. By CC50 is commonly meant the concentration giving 50% cytotoxicity. As to `CC(C)(C)[C@H](NC(=O)C(F)(F)F)C(=O)N1C[C@H]2[C@@H]([C@H]1C(=O)N[C@H](C#N)C[C@@H]1CCNC1=O)C2(C)C` [DDL-750, nirmatrelvir], the “rescue of IFN-β induction in the presence of PL^pro” value (“rescue of IFN-β induction” below) is on record as “not” in data set [2] (setting [10]) and “Neither DDL-715 nor DDL-750 rescued IFN-β induction” in data set [2] (any dose). Further, the concentration at 2 h was ~180 nM and ~91 ng/g in [3]; 0.1 µM in data set [5] (setting [11]); approximately 0.4 µM in data set [5] (setting [12]); ~100 nM and ~55 ng/mL in data set [5] (setting [13]); ~500 nM and ~234 ng/mL in [5] (setting [14]). Further, the brain permeability entry in data set [3] was “lower brain-permeability”. Moreover, in data set [4] (at 1 μM), the IFN induction entry was “approximately 1.3 fold over DMSO”. Further, the EC50 in the data set on SARS-CoV-2 (setting [15]) is 0.074 µM. For the same compound, the concentration for an effect of 90% (EC90) in the data set with SARS-CoV-2 (setting [15]) is 0.155 µM. For the same compound, the CC50 with Vero E6 normal cells was more than 100 µM.
As for `O=C(O)c1cc(F)c2nc(N3[C@@H]4CC[C@H]3C[C@@H](OCc3c(-c5ccccc5OC(F)(F)F)noc3C3CC3)C4)sc2c1` [tropifexor], the Cmax in data set [1] (setting [9]) is less than 0.1 µM. Moreover, the IC50 at PL^pro was approximately 6 µM.
As usually defined, the inhibition is the share of the control response that was lost under treatment. Take `COc1cc(C(=O)NS(=O)(=O)c2ccccc2C)ccc1Cc1cn(C)c2ccc(NC(=O)OC3CCCC3)cc12` [DDL-715, zafirlukast]: the “rescue of IFN-β induction” value in data set [2] (setting [10]) was “not”; in data set [2] (any dose) it was “Neither DDL-715 nor DDL-750 rescued IFN-β induction”. The Cmax in [1] (human, in vivo, po) is approximately 0.5 µM. In data set [4] (at 10 and 1 μM), the IFN induction entry is “approximately 1.5 fold over DMSO”. The same compound returned a concentration at 2 h in data set [5] (setting [12]) of approximately 4 µM. Further, the IC50 against SARS-CoV-2 PL^pro was approximately 24 µM. The inhibition at 50 µM on SARS-CoV-2 PL^pro (compounds at 50 μM) is more than 80%.
What is called AUC is the area under the concentration-time curve, a measure of exposure. Regarding `CC1=NN(c2ccc(C)c(C)c2)C(=O)/C1=N/Nc1cccc(-c2cccc(C(=O)O)c2)c1O` [DDL-701, eltrombopag], the “rescue of IFN-β induction” value in [2] (setting [10]) is listed as “modestly yet significantly rescued; also recorded: partially restored”; in [2] (higher concentrations than 1 μM) it was “did not rescue induction”. In addition, the IC50 in [6] (ISG15 substrate, dose response) is 8 µM; in [8] (deubiquitinase substrate, dose response), 21 µM; on SARS-CoV-2 PL^pro (setting [18]), 13 µM. Further, the “ISG15 activity inhibition in combination” value in data set [6] (setting [16]) is reported as “inhibits”. Also, the concentration at 2 h was ~1 µM and ~442 ng/g in data set [3]; 4 µM in [5] (setting [11]); approximately 11 µM in data set [5] (setting [12]); ~4 µM and 1630 ng/mL in data set [5] (setting [13]); ~14 µM and ~6210 ng/mL in data set [5] (setting [14]). Also, in data set [3] (mice, oral 30 mg/Kg, 2 hours), the “brain penetration relative to nirmatrelvir” value was more than 5 fold. For the same compound, in data set [3], the brain permeability entry is given as “brain-permeable”. Besides, the “effect on spike protein-ACE2 complex” value in data set [7] is “bind and reduce the stability”. For the same compound, in data set [1] (human, single oral dose of 75 mg, tablet), the AUC was 168 µg·h/mL. Besides, the Cmax in data set [1] (read-out: plasma Cmax, human, single oral dose of 75 mg, tablet) is 25 to 36 µM; in [1] (read-out: steady state drug level in plasma, Cmax, human, 75 mg tablet, oral dosing, steady state), approximately 50 µM. The IFN induction result in [4] (at 10 and 1 μM) was “approximately 1.5 fold over DMSO”. Also, the “deubiquitinase inhibition in combination” value in data set [8] (setting [16]) is given as “inhibits”. Also, the EC50 in the data set with SARS-CoV-2 (setting [17]) was 8.2 µM; in the data set with SARS-CoV-2 (Vero cells infected with SARS-CoV-2 (Sangeun J. et al., 2020)), approximately 8 µM. Moreover, the EC90 with SARS-CoV-2 (setting [17]) is 9.5 µM. Further, the “inhibition of PL^pro by DDL-701 in combination with DDL-750” value at SARS-CoV-2 PL^pro (DDL-701/750 at 50 μM/0.1 μM, FIG. 7A) was “not affected”. In addition, the “inhibition of PL^pro” value against SARS-CoV-2 PL^pro (DDL-701 alone at 50 μM, FIG. 7A) was “almost complete”. Further, the “PLpro inhibition in combination” value on SARS-CoV-2 PL^pro (setting [16]) is given as “inhibits; also recorded: continues to show its inhibition”. Further, the inhibition at 50 µM on SARS-CoV-2 PL^pro was more than 80%. Moreover, at SARS-CoV-2 M^pro, the “activity in M^pro activity assay” value is recorded as “did not show activity; also recorded: not M^pro”. In the data set on Vero E6 normal cells, the CC50 is more than 50 µM.
In the case of `CC1=NN(c2ccc(C)c(C)c2)C(=O)/C1=N/Nc1cccc(-c2cccc(-c3nnn[nH]3)c2)c1O` [DDL-713, thrombopoietin receptor agonist-1], the IC50 on SARS-CoV-2 PL^pro (setting [18]) is approximately 54 µM. Moreover, the inhibition at 50 µM at SARS-CoV-2 PL^pro (compounds at 50 μM) was more than 80%.
For `CC(C)c1nc(CN(C)C(=O)N[C@H](C(=O)N[C@@H](Cc2ccccc2)C[C@H](O)[C@H](Cc2ccccc2)NC(=O)OCc2cncs2)C(C)C)cs1` [DDL-751, ritonavir], in [4] (at the concentration tested), the IFN induction entry is “did not produce IFN induction”.
